Assay results published in ChEMBL document CHEMBL3639072, “Heterocyclic derivatives and their use in the treatment of neurological disorders” (2014).

Key:
Beta-secretase 1 = Beta-secretase 1 (Homo sapiens, UniProt P56817)
Beta-secretase 2 = target: T1, Beta-secretase 2 (Homo sapiens, UniProt Q9Y5Z0)
T1 sequence (Q9Y5Z0 whole entry): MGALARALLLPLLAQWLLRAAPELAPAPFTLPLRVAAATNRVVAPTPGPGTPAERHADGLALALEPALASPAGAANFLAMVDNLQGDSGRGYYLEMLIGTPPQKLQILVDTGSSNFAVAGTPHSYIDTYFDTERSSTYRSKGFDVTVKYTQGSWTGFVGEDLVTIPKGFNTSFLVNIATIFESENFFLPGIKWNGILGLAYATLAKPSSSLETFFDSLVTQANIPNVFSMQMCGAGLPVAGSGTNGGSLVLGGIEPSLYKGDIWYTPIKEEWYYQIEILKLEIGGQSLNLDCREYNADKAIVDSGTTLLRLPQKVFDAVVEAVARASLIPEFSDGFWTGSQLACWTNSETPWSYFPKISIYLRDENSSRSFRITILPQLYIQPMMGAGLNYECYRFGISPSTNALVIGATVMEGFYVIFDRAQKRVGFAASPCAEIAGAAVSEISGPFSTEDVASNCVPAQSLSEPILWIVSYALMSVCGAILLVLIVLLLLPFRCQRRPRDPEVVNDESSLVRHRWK

Chain of Beta-secretase 1 (P56817 whole entry): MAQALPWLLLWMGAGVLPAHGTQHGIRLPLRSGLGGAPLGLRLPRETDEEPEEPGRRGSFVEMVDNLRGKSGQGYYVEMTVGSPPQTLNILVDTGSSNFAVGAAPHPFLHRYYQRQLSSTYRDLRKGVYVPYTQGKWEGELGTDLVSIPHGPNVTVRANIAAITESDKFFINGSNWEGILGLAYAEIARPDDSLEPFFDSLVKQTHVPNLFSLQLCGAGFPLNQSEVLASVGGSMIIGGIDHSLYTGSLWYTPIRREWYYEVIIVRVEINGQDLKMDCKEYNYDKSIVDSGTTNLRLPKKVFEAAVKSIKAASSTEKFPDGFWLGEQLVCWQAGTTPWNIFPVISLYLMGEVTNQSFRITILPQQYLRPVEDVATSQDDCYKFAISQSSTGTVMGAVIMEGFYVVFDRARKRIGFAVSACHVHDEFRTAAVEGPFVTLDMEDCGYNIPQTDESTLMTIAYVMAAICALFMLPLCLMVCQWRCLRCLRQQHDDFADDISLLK

Compound	IC50 (Beta-secretase 1) [nM]	IC50 (Beta-secretase 2) [nM]
Cc1cnc(C(=O)Nc2ccc(F)c([C@]3(C)CO[C@@](C)(C(F)(F)F)C(N)=N3)n2)c(C)n1	230	130
C[C@@]1(c2nc(NC(=O)c3ncc(OCCCF)nc3N)ccc2F)CO[C@@](C)(C(F)(F)F)C(N)=N1	200	1000
